{"source": "patent US11414398B2", "about": "“Selective organic cation transporters inhibitors for the treatment of depressive disorders” (priority 2017, dated 2022)", "key": {"OCT3": {"biological_target": "T1, OCT3 (Homo sapiens, UniProt O75751)", "T1 sequence (O75751 1-556)": "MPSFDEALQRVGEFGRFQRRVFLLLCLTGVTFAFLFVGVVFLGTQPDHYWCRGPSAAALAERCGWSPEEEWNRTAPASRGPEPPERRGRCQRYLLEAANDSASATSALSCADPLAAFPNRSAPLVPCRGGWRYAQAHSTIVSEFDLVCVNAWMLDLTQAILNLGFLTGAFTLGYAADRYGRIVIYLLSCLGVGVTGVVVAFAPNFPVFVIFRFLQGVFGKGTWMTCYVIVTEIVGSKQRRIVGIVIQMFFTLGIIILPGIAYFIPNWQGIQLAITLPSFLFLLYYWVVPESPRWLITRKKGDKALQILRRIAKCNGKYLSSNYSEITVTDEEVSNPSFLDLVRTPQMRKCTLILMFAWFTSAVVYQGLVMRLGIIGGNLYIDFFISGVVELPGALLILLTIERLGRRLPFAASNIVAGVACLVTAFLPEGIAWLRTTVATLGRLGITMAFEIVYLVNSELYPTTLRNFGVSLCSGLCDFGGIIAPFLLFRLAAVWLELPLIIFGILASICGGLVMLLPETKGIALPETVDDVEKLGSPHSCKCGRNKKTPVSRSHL", "settings": "for OCT3; cited from earlier work"}, "α1-adrenoreceptors": {"tested_on": "α1-adrenoreceptors", "settings": "cited from earlier work"}, "α2-adrenoreceptors": {"tested_on": "α2-adrenoreceptors", "settings": "cited from earlier work"}, "[1]": {"settings": "after injection in rabbits; cited from earlier work"}, "[2]": {"tested_on": "corticosterone-induced depression model", "test": "Coat state, corticosterone-induced depression", "type": "in vivo, mice", "settings": "both time points; i.p. daily: I-1 0.1 mg/kg/day, fluoxetine 15 mg/kg/day or both", "experimental": "Corticosterone-induced depression. […] The experimental scheme is represented on FIG. 1A. Coat state. The coat state of each animal was assessed weekly as a measure of motivation toward self-care. It was evaluated as the sum of the score of different parts of the body, ranging between 0 for a well-groomed coat and 1 for an unkempt coat for head, neck, dorsal/ventral coat, tail and forepaws/hindpaws (FIG. 1B)."}, "[3]": {"tested_on": "corticosterone-induced depression model", "test": "Sucrose preference test, corticosterone-induced depression", "type": "in vivo, mice", "settings": "i.p. daily: I-1 0.1 mg/kg/day, fluoxetine 15 mg/kg/day or both", "experimental": "Corticosterone-induced depression. […] The experimental scheme is represented on FIG. 1A. Sucrose preference test. Singled-house mice were first habituated for 48 h to drink water from two bottles."}, "[4]": {"tested_on": "corticosterone-induced depression model", "test": "Elevated O-maze test, corticosterone-induced depression", "type": "in vivo, mice", "settings": "after 21 days; i.p. daily: I-1 0.1 mg/kg/day, fluoxetine 15 mg/kg/day or both", "experimental": "Corticosterone-induced depression. […] The experimental scheme is represented on FIG. 1A. Elevated O-maze test. The elevated O-maze consisted of an annular runway positioned 40 cm above the floor and divided into two opposing 90° closed sectors and two 90° open sectors. The mice were individually placed in the closed sector and their behavior recorded over a 5-min period. The time spent in each sector and the number of sector entries (a sector entry was defined as all four of the paws being placed in a sector) were determined by video tracking (Viewpoint, Lyon, France) (FIGS. 1D and 1E)."}, "[5]": {"tested_on": "corticosterone-induced depression model", "test": "Social interaction test, corticosterone-induced depression", "type": "in vivo, mice", "settings": "compared to corticosterone", "experimental": "(§1) Corticosterone-induced depression. […] The experimental scheme is represented on FIG. 1A. Social interaction test. The social interaction test was performed in a white open-field (42×42 cm) containing an empty wire mesh cage (10×6.5 cm) located at an extremity of the field in a low luminosity environment (25 lux). Each test mouse was allowed to explore the openfield for two consecutive sessions of 2.5 min. During the second session, an unfamiliar mouse was introduced into the cage. Between the two sessions, the test mouse was placed back into its home cage for approximately one minute. The time spent by the test mouse in the interaction zone, defined as an 8-cm-wide region surrounding the mesh cage, was measured in both sessions by video tracking (Viewpoint, Lyon, France) (FIGS. 1G and 1I)."}, "[6]": {"tested_on": "corticosterone-induced depression model", "test": "Open-field test, corticosterone-induced depression", "type": "in vivo, mice", "settings": "compared to corticosterone; I-1 0.1 mg/kg/day, fluoxetine 15 mg/kg/day or both, i.p.", "experimental": "(§2) Corticosterone-induced depression. To induce a chronic depression-like state, individually housed mice were administered corticosterone ([…]; Sigma-Aldrich) dissolved in 0.45% (wt/vol) hydroxypropyl-b-cyclodextrin (Sigma-Aldrich) as in (Bacq et al., Mol. Psychiatry, 2012, 17, 926-939). […] The mice were tested successively for coat sate, sucrose consumption, elevated O-maze, object location test and social interaction, before antidepressant treatment, and after 10 days and 3 weeks of treatment. The experimental scheme is represented on FIG. 1A.\nOpen-field test. The open field consisted of a white Plexiglas field (100×100×30 cm) with the center brightly illuminated (500 lux). General locomotor activity in the center and periphery of the open field were scored for 9 min. The time and number of entries in the center zone (60×60 cm) were evaluated as an index of anxiety-related response (FIG. 2B)."}, "[7]": {"test": "Effect on weight, corticosterone-induced depression", "type": "in vivo, mice", "settings": "weight measured daily; I-1 0.1 mg/kg/day, fluoxetine 15 mg/kg/day or both, i.p.", "experimental": "Corticosterone-induced depression. […] The experimental scheme is represented on FIG. 1A. Effect on weight. The weight of tested mice was measured daily in the morning (FIG. 2D)."}, "social defeat model": {"tested_on": "social defeat model", "test": "Social defeat model, social interaction test", "type": "in vivo, mice", "settings": "after 3 weeks of treatment; fluoxetine 17 mg/kg, compound (I-1) 0.1 mg/kg as printed", "experimental": "as §1, with “Social defeat model. For social defeat, 8-week-old C57Bl/6J mice were submitted to social defeat stress for 10 consecutive days as described (Berton et al., Science, 2006, 311(5762), 864-8).” for “Corticosterone-induced depression.”, “1H.” for “1A.”"}, "[8]": {"settings": "blood after 3 weeks of treatment, corticosterone model; means ± SEM (n = 6)", "experimental": "as §2\nBlood parameter evaluation. Blood was collected in lithium heparin after the 3 weeks of treatment. Hemograms were performed with a Siemens ADVIAZ 120 apparatus. For biochemistry, blood was centrifuged at 2000 g for 10 min at +4° C. and supernatant was analyzed with a COBAS 6000 (Roche) apparatus."}, "[9]": {"tested_on": "autophagy and proteasome pathways in the brain", "test": "Toxicity: cell death pathways in the brain, Western blots", "settings": "quantitative Western blot, prefrontal cortex and hippocampus, corticosterone model", "experimental": "as §2\nCell death pathways in the brain—Western blots. […] Samples were homogenized by sonication in 2 vol of ice-cold phosphate-buffered saline containing 1% Triton X-100, protease inhibitors (Complete Protease Inhibitor Cocktail, Roche Diagnostics, Basel, Switzerland) and phosphatase inhibitors (Phosphatase Inhibitor Cocktail 3; Sigma-Aldrich). Protein concentrations were determined by Bradford's method. Proteins samples (15 μg) suspended in NuPage LDS sample buffer (Invitrogen, Carlsbad, Calif., USA) were separated by Bis-Tris sodium dodecyl sulfate polyacrylamide gel electrophoresis (10% gels) and transferred onto nitrocellulose membranes (Invitrogen). Transfer efficacy was controlled by Ponceau S staining. Unspecific binding sites were blocked in Tris-buffered saline containing 0.1% Tween-20 and 5% nonfat milk and membranes were immunoprobed with antibodies against β-actin ( 1/2500) and β-catenin ( 1/300) from Sigma-Aldrich or LC3B ( 1/5000) from Abcam. Membranes were incubated with infrared-labeled secondary antibodies (IRDye 700DX and IRDye 800CW; 1/5000; Rockland, Gilbertsvillle, Pa., USA). Immunoblotting was quantified with the Odyssey Infrared Imaging System and Application Software version 3.0 (LI-COR Biosciences, Lincoln, Nebr., USA)."}}, "data": [{"smiles": "CC(C)N1/C(=C\\c2cc[n+](C(C)C)c3ccccc23)C=Cc2ccccc21", "note": "[Compound D24, disprocynium 24]", "values": [{"measurement": "Ki", "setting": "OCT3", "value": 14, "unit": "nM"}, {"measurement": "inhibition of α1-adrenoreceptors", "setting": "α1-adrenoreceptors", "value": "inhibits"}, {"measurement": "inhibition of α2-adrenoreceptors", "setting": "α2-adrenoreceptors", "value": "inhibits"}, {"measurement": "hypotensive effects (blood pressure)", "setting": "[1]", "value": "decreasing blood pressure markedly"}]}, {"smiles": "CNCCC(Oc1ccc(C(F)(F)F)cc1)c1ccccc1", "note": "(stereo not shown) [fluoxetine, reference compound]", "values": [{"measurement": "coat state", "setting": "[2]", "value": "improved coat state at both time points"}, {"measurement": "sucrose preference", "setting": "[3]; 11 days of treatment", "value": "but not fluoxetine alone, significantly increased sucrose preference at 11 days"}, {"measurement": "sucrose preference", "setting": "[3]; 21 days of treatment", "value": "significantly increased sucrose preference at 21 days"}, {"measurement": "latency to enter the open zone of the elevated O-maze", "setting": "[4]", "value": "decreased the latency to enter this zone"}, {"measurement": "time in the open zone of the elevated O-maze", "setting": "[4]", "value": "increased the time in the open zone"}, {"measurement": "interaction time in social interaction test", "setting": "[5]; 11 days of treatment", "value": "significant effects on interaction time"}, {"measurement": "interaction time in social interaction test", "setting": "[5]; 21 days of treatment", "value": "significant effects on interaction time"}, {"measurement": "locomotor activity at the periphery of the open field", "setting": "[6]", "value": "significant effect"}, {"measurement": "effect on weight", "setting": "[7]", "value": "no significant effect"}, {"measurement": "reversal of social aversion (time in interaction zone with target)", "setting": "social defeat model", "value": "reversed only by fluoxetine"}, {"measurement": "ALP", "setting": "[8]", "value": "47.4 ± 6.2", "unit": "U/L"}, {"measurement": "ALT", "setting": "[8]", "value": "75.1 ± 12.4", "unit": "U/L"}, {"measurement": "AST", "setting": "[8]", "value": "584.2 ± 87.6", "unit": "U/L"}, {"measurement": "Creatinine", "setting": "[8]", "value": "0.5 ± 0.04", "unit": "mg/dL"}, {"measurement": "Hematies", "setting": "[8]", "value": "8.5 ± 0.3", "unit": "T/L"}, {"measurement": "Leucocytes", "setting": "[8]", "value": "2.99 ± 0.08", "unit": "g/L"}, {"measurement": "Platelets", "setting": "[8]", "value": "357 ± 57.2"}, {"measurement": "Total bilirubin", "setting": "[8]", "value": "0.12 ± 0.01", "unit": "mg/dL"}, {"measurement": "Urea", "setting": "[8]", "value": "64.2 ± 4.1", "unit": "mg/dL"}, {"measurement": "LC3II/LC3I ratios", "setting": "[9]", "value": "comparable LC3II/LC3I ratios"}, {"measurement": "β-catenin levels", "setting": "[9]", "value": "comparable"}]}]}
